# Laboratory results as given in patent US20230322722A1, “MODULATORS OF MYC FAMILY PROTO-ONCOGENE PROTEIN” (Nalo Therapeutics, priority 2020, published 2023).
# Experiments:
# [1] = target: T1, MycN protein (n-myc) (Homo sapiens, UniProt P04198); experiment: Degradation of MycN protein, 24 h treatment, JESS Western, SK-N-BE(2) cells (Example 161); type: cell-based; details: SKNBE2 cells
# T1 construct: either 2×10^6 of L-363 (human leukemia cell line) or SKNBE2 (neuroblastoma cell line) cells; endogenous in cells; host or cells: SKNBE2 / SK-N-BE(2) neuroblastoma cells
# T1 sequence (P04198 1-464): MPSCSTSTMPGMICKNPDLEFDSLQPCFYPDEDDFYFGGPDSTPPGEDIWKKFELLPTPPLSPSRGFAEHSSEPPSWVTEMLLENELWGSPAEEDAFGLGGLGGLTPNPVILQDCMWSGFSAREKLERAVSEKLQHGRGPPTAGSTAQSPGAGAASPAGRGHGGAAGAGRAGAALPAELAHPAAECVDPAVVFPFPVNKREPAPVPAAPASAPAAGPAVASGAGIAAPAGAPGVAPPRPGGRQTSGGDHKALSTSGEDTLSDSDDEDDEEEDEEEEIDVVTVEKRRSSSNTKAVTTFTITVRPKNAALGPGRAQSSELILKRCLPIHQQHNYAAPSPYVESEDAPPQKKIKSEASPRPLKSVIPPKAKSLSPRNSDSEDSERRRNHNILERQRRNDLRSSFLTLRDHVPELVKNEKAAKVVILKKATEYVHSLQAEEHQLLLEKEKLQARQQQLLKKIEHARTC
# Experimental: (§1) For L363 cells (suspension), 1E6 cells were plated into each well of a 6 well plate. For SK-N-BE(2) cells (adherent), 5E5 cells were plated into each well of a 6 well dish. […] All compounds were diluted to 10 mM in DMSO. Cells were treated with the compound for 24 hrs, then for both cell types, media containing cells were removed from wells into a 15 ml centrifuge tube, and remaining adherent SK-N-BE(2) cells were also scraped from the wells into the appropriate tubes. Tubes were centrifuged, cells were washed with PBS then re-centrifuged to pellet cells. A RIPA buffer cocktail was added to the cells on ice for 5 mins. Cell lysates were clarified by centrifugation and stored at −80 degrees until required. BCA assay was performed on each lysate to determine the protein concentration.
# (§2) For validation studies of antibodies, lysates and antibodies were used at a number of concentrations (Lysates: 2, 1, 0.2 mg/ml; Antibodies: 1 in 50, 1 in 200 dilution). Once an appropriate lysate concentration and antibody concentration was determined, samples were screened in the JESS technology (Protein Simple, San Jose, CA—https://www.proteinsimple.com/jess.html).
# (§3) Target protein antibodies (n-myc and c-myc) were detected in the chemi-luminescence channel and loading controls (tubulin and GAPDH) were detected using a Near Infra Red (NIR) labeled secondary antibody.
# (§4) For SK-N-EB2 adherent cells, 5E5 cells in 1.9 mls media were plated into 6 well dishes and incubated for 24 hrs. […] Cells were scrapped off the plate, centrifuged, washed with PBS, centrifuged, then a RIPA buffer cocktail added to the cells (100 ul), centrifuged and stored at −80 for later analysis. For L363 suspension cells, 1E6 cells were plated into […] (950 ul media) and incubated for 24 hrs. […] Cells were aspirated into tubes, centrifuged, washed with PBS, centrifuged, then a RIPA buffer cocktail added to the cells (100 ul), centrifuged and stored at −80 for later analysis.
# (§5) For Western blot, a BCA (total protein) assay was run on all samples, these were then run in batches of 5 compounds plus control (DMSO) on each Western blot run—n-myc and c-myc were run in separate experiments in the chemiluminescence channel. Both tubulin and GAPDH were run as loading controls in all lanes in the near infra red channel.
# [2] = target: T2, MycC protein (c-myc) (Homo sapiens, UniProt P01106); experiment: Degradation of MycC protein, 24 h treatment, JESS Western, L363 cells (Example 161); type: cell-based; details: L-363 cells
# T2 construct: either 2×10^6 of L-363 (human leukemia cell line) cells; endogenous in cells; host or cells: L-363 / L363 human leukemia cells
# T2 sequence (P01106 whole entry): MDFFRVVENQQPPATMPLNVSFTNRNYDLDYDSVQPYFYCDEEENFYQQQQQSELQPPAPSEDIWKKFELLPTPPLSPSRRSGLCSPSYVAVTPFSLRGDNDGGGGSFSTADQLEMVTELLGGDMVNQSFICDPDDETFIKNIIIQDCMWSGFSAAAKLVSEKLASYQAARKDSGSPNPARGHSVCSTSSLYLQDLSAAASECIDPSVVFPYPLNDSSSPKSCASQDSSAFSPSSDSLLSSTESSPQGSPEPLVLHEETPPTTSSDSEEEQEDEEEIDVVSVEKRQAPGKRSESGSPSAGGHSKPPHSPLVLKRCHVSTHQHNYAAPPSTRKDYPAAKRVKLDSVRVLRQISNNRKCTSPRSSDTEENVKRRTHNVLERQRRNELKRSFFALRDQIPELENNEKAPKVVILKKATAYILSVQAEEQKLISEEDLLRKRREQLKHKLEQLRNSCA
# Experimental: as §1, §2, §3, §4, §5
SMILES,inhibition at 6 µM [1],inhibition at 0.5 µM [2],inhibition at 1 µM [2],inhibition at 3 µM [2],inhibition at 6 µM [2],inhibition at 0.5 µM [1],inhibition at 1 µM [1],inhibition at 3 µM [1]
"CN(c1nccc(Nc2cc(C3CC3)[nH]n2)n1)C1CC2(C1)CN(CC(=O)Nc1cccc(S(C)(=O)=O)c1)C2 [Compound 23, 2-(6-((4-((5-Cyclopropyl-1H-pyrazol-3-yl)amino)pyrimidin-2-yl)(methyl)amino)-2-azaspiro[3.3]heptan-2-yl)-N-(3-(methylsulfonyl)phenyl)acetamide]",80 to 100%,< 20%,50 to 79%,80 to 100%,80 to 100%,,,
"CN(c1nccc(Nc2cc(C3CC3)[nH]n2)n1)C1CC2(C1)CN(C(=O)c1cccc(C(F)(F)F)c1)C2 [Compound 34, (6-((4-((5-Cyclopropyl-1H-pyrazol-3-yl)amino)pyrimidin-2-yl)(methyl)amino)-2 azaspiro[3.3]heptan-2-yl)(3-(trifluoromethyl)phenyl)methanone]",80 to 100%,,,< 20%,80 to 100%,< 20%,< 20%,80 to 100%
"Cc1nnsc1C(=O)N1CC2(CC(N(C)c3nccc(Nc4cc(C5CC5)[nH]n4)n3)C2)C1 [Compound 33, (6-((4-((5-Cyclopropyl-1H-pyrazol-3-yl)amino)pyrimidin-2-yl)(methyl)amino)-2-azaspiro[3.3]heptan-2-yl)(4-methyl-1,2,3-thiadiazol-5-yl)methanone]",80 to 100%,,,80 to 100%,80 to 100%,,,
"CN1CCC(Nc2nccc(Nc3cc(C4CC4)[nH]n3)n2)CC1 [Compound 37, N4-(5-Cyclopropyl-1H-pyrazol-3-yl)-N2-(1-methylpiperidin-4-yl)pyrimidine-2,4-diamine]",50 to 79%,,,< 20%,80 to 100%,,< 20%,20 to 49%
"CN(c1nccc(Nc2cc(C3CC3)[nH]n2)n1)C1CC2(C1)CN(Cc1ccccc1F)C2 [Compound 25, N4-(5-Cyclopropyl-1H-pyrazol-3-yl)-N2-(2-(2-fluorobenzyl)-2-azaspiro[3.3]heptan-6-yl)-N2-methylpyrimidine-2,4-diamine]",< 20%,20 to 49%,20 to 49%,,,,,< 20%
"CN1CC2(CC(Nc3nccc(Nc4cc(C5CC5)[nH]n4)n3)C2)C1 [Compound 16, N4-(5-Cyclopropyl-1H-pyrazol-3-yl)-N2-(2-methyl-2-azaspiro[3.3]heptan-6-yl)pyrimidine-2,4-diamine]",80 to 100%,50 to 79%,80 to 100%,80 to 100%,80 to 100%,20 to 49%,20 to 49%,80 to 100%
"CN(c1nccc(Nc2cc(C3CCCC3)[nH]n2)n1)C1CCN(C2CC2)CC1 [Compound 17, N4-(5-Cyclopentyl-1H-pyrazol-3-yl)-N2-(1-cyclopropylpiperidin-4-yl)-N2-methylpyrimidine-2,4-diamine]",80 to 100%,,80 to 100%,80 to 100%,80 to 100%,< 20%,20 to 49%,80 to 100%
"CN(c1nccc(Nc2cc(C3CC3)[nH]n2)n1)C1CCN(C2CC2)CC1 [Compound 38, N4-(5-Cyclopropyl-1H-pyrazol-3-yl)-N2-(1-cyclopropylpiperidin-4-yl)-N2-methylpyrimidine-2,4 diamine]",80 to 100%,50 to 79%,80 to 100%,80 to 100%,80 to 100%,20 to 49%,50 to 79%,80 to 100%
"CN(c1nccc(Nc2cc(C3CC3)[nH]n2)n1)C1CC2(C1)CN(CCCc1nc3ccccc3o1)C2 [Compound 29, N2-(2-(3-(Benzo[d]oxazol-2-yl)propyl)-2-azaspiro[3.3]heptan-6-yl)-N4-(5-cyclopropyl-1H-pyrazol-3-yl)-N2-methylpyrimidine-2,4-diamine]",80 to 100%,50 to 79%,80 to 100%,80 to 100%,80 to 100%,20 to 49%,20 to 49%,50 to 79%
"CN(c1nccc(Nc2cc(C3CC3)[nH]n2)n1)C1CC2(C1)CN(C(=O)c1cn(C)nn1)C2 [Compound 31, (6-((4-((5-Cyclopropyl-1H-pyrazol-3-yl)amino)pyrimidin-2-yl)(methyl)amino)-2-azaspiro[3.3]heptan-2-yl)(1-methyl-1H-1,2,3-triazol-4-yl)methanone]",80 to 100%,,80 to 100%,80 to 100%,80 to 100%,20 to 49%,50 to 79%,80 to 100%
"CN(c1nccc(Nc2cc(C3CC3)[nH]n2)n1)C1CC2(C1)CN(S(=O)(=O)c1cnn(C)c1)C2 [Compound 35, N4-(5-Cyclopropyl-1H-pyrazol-3-yl)-N2-methyl-N2-{2-[(1-methyl-1H-pyrazol-4-yl)sulfonyl]-2-azaspiro[3.3]heptan-6-yl}pyrimidine-2,4-diamine]",80 to 100%,20 to 49%,50 to 79%,80 to 100%,80 to 100%,< 20%,20 to 49%,50 to 79%
"CN(c1nccc(Nc2cc(C3CC3)[nH]n2)n1)C1CC2(C1)CN(C(=O)C1CCOCC1)C2 [Compound 32, (6-((4-((5-Cyclopropyl-1H-pyrazol-3-yl)amino)pyrimidin-2-yl)(methyl)amino)-2 azaspiro[3.3]heptan-2-yl)(tetrahydro-2H-pyran-4-yl)methanone]",80 to 100%,,,80 to 100%,80 to 100%,,,80 to 100%
"CN(c1nccc(Nc2cc(C3CCCC3)[nH]n2)n1)C1CCNCC1 [Compound 18, N4-(5-Cyclopentyl-1H-pyrazol-3-yl)-N2-methyl-N2-(piperidin-4-yl)pyrimidine-2,4-diamine]",80 to 100%,,80 to 100%,80 to 100%,80 to 100%,,20 to 49%,80 to 100%
"CN(c1nccc(Nc2cc(C3CC3)[nH]n2)n1)C1CC2(C1)CN(Cc1cccc(S(C)(=O)=O)c1)C2 [Compound 28, N4-(5-Cyclopropyl-1H-pyrazol-3-yl)-N2-methyl-N2-(2-(3-(methylsulfonyl)benzyl)-2-azaspiro[3.3]heptan-6-yl)pyrimidine-2,4-diamine]",20 to 49%,,,80 to 100%,80 to 100%,,,
"CN(c1nccc(Nc2cc(C3CC3)[nH]n2)n1)C1CC2(C1)CN(Cc1cccc(OC(F)(F)F)c1)C2 [Compound 27, N4-(5-Cyclopropyl-1H-pyrazol-3-yl)-N2-methyl-N2-(2-(3-(trifluoromethoxy)benzyl)-2-azaspiro[3.3]heptan-6-yl)pyrimidine-2,4-diamine]",< 20%,< 20%,20 to 49%,50 to 79%,80 to 100%,20 to 49%,20 to 49%,
"CN(c1nccc(Nc2cc(C3CC3)[nH]n2)n1)C1CC2(C1)CN(CC1CC1)C2 [Compound 21, N4-(5-Cyclopropyl-1H-pyrazol-3-yl)-N2-(2-(cyclopropylmethyl)-2-azaspiro[3.3]heptan-6-yl)-N2-methylpyrimidine-2,4-diamine]",50 to 79%,,< 20%,50 to 79%,80 to 100%,< 20%,20 to 49%,20 to 49%
